According to patent US11572590B2, “Methods for evaluating tumor cell spheroids using 3D microfluidic cell culture device” (Dana-Farber Cancer Institute, Inc., priority 2017, dated 2023):
Read-outs that look alike come from different tables or passages of the source.

How the values were obtained:
Assay in all cases: SelectScreen Kinase Profiling, single point inhibition and IC50 for off-target kinases
Type in all cases: biochemical
off-target kinases [1] = biological target: off-target kinases (Homo sapiens, UniProt Q13627); settings: DYRK1A, ZLYTE, ATP Km app
off-target kinases [2] = biological target: off-target kinases (Homo sapiens, UniProt Q13557); settings: CAMK2D (CaMKII delta), ZLYTE, ATP Km app
off-target kinases [3] = biological target: T1, off-target kinases (Homo sapiens, UniProt P29323); settings: EPHB2, ZLYTE, ATP Km app
T1 sequence (P29323 19-1055): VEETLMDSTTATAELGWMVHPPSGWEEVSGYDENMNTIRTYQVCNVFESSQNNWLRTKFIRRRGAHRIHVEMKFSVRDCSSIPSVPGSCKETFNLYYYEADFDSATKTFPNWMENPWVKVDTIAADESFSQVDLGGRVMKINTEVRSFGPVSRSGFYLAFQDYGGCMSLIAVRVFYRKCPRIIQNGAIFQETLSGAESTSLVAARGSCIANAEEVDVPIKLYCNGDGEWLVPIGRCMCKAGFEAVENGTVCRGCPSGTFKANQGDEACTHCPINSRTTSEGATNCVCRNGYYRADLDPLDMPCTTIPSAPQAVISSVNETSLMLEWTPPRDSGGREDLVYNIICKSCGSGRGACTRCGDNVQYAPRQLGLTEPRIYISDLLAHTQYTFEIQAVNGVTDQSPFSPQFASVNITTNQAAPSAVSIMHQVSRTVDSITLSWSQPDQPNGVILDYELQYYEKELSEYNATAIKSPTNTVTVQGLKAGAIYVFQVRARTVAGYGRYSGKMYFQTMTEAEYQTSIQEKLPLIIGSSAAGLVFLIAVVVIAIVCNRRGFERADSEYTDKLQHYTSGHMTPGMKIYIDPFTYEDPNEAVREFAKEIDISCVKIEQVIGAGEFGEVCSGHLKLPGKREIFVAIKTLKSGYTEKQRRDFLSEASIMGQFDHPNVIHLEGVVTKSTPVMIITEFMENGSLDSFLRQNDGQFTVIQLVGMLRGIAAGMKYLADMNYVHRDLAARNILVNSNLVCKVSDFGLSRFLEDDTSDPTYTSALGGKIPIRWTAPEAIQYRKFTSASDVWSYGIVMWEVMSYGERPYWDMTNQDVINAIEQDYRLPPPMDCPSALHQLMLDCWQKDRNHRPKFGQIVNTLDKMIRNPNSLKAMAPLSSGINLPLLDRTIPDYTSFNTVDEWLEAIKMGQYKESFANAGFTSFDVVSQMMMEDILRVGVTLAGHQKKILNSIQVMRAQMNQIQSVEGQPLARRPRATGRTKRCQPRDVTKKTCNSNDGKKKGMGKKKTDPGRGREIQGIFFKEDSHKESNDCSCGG

off-target kinases (Homo sapiens, UniProt Q13557), sequence (Q13557 whole entry): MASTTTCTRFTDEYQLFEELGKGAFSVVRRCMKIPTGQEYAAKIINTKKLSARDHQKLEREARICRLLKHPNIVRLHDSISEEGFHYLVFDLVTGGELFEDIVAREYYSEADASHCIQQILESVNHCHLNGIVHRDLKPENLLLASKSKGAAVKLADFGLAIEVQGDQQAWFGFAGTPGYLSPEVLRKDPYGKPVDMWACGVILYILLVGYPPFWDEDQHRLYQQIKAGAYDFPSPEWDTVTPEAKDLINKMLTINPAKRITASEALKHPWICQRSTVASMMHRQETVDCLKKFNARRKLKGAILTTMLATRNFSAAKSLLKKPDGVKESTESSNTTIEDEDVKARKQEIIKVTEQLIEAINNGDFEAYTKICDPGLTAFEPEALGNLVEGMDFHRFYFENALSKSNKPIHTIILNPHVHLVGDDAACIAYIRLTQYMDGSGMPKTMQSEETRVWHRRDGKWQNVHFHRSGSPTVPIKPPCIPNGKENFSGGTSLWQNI

SMILES: N#Cc1cc(-c2ncnc(Nc3ccc(N4CCN(C5COC5)CC4)cc3)n2)ccc1OC1CCOCC1 [Compound 1, 5-(4-((4-(4-(oxetan-3-yl)piperazin-1-yl)phenyl)amino)-1,3,5-triazin-2-yl)-2-((tetrahydro-2H-pyran-4-yl)oxy)benzonitrile]
- inhibition (off-target kinases [1]; read-out: % Inhibition 1): 30%
- inhibition (off-target kinases [1]; read-out: % Inhibition 2): 27%
- inhibition (off-target kinases [1]; read-out: % Inhibition Avg): 28%
- inhibition (off-target kinases [2]; read-out: % Inhibition 1): 18%
- inhibition (off-target kinases [2]; read-out: % Inhibition 2): 19%
- inhibition (off-target kinases [2]; read-out: % Inhibition Avg): 19%
- inhibition (off-target kinases [3]; read-out: % Inhibition 1): 14%
- inhibition (off-target kinases [3]; read-out: % Inhibition 2): 17%
- inhibition (off-target kinases [3]; read-out: % Inhibition Avg): 16%
